A short description of data set [1]: pharmacokinetics after intravenous administration to rats. The conditions noted are these: in vivo, rat. As to the method: The above compound is also administered intravenously to rats and found to have a relatively long terminal half life in blood of about 10 hours, with a systemic clearance of about 15 ml/min/kg and a volume of distribution of about 2 l/kg. It appears therefore that the relatively low oral bioavailability of the compound is due to low absorption from the gastrointestinal tract.

Data set [2] in a line: oral bioavailability in the rat. The conditions noted are these: in vivo, read-out: absolute oral bioavailabilty. As to the method:
The oral bioavailability of a model β-peptide according to the invention, β-HAla-β-HLys-β-HAla-β-HLeu-β-HLys-β-HAla-β-HLeu, TFA salt is determined in the rat using standard procedures. The absolute oral bioavailabilty is found to be about 1%. It is to be expected that greater oral bioavailability may be seeen with other compounds of the invention, having substituents selected to improve this property.

As a reminder, the half-life is how long it takes for the measured level to halve. For orientation: clearance means the volume of plasma or blood freed of the substance per unit of time. Take `CC(C)C[C@@H](CC(=O)O)NC(=O)C[C@H](C)NC(=O)C[C@H](CCCCN)NC(=O)C[C@H](CC(C)C)NC(=O)C[C@H](C)NC(=O)C[C@H](CCCCN)NC(=O)C[C@H](C)N` [β-HAla-β-HLys-β-HAla-β-HLeu-β-HLys-β-HAla-β-HLeu]: the half-life in data set [1] (blood, read-out: terminal half life in blood (converted)) is around 10 h. Further, the clearance in data set [1] (read-out: systemic clearance) was around 15 mL/min/kg. Also, the Vd in data set [1] (read-out: volume of distribution) is around 2 L/kg. In data set [2], the bioavailability is around 1%.
